Tests used:
[1] = Caco-2 cell permeability assay (efflux ratio); type: in vitro ADME, human; settings: human, Caco-2, Papp B to A/Papp A to AB, differentiated Caco-2 cell monolayer; read-out: Caco-2 BA/AB (efflux ratio)
Description: (§1) The permeability of the test compounds was determined with a Caco-2 cell permeability assay according to Hubatsch I. et al (Nat. Protoc. 2007, 2 (9), 2111-2119).
(§2) The Caco-2 cell line is a continuous cell of heterogeneous human epithelial colorectal adenocarcinoma cells. When cultured as a confluent monolayer on a permeable support such as a cell culture insert filter, the cells differentiate to form a polarized epithelial cell monolayer that provides a physical and biochemical barrier to the passage of ions and small molecules. In form of the confluent monolayer, the Caco-2 cells serve in the pharmaceutical industry as a well established in vitro model of the human small intestinal mucosa to predict the absorption of orally administered drugs. Assessing transport in both directions (apical to basolateral (A-B) and basolateral to apical (B-A)) across the cell monolayer enables an efflux ratio to be determined which provides an indicator as to whether a compound undergoes active efflux. […] As will be appreciated, active efflux substantially compromises oral bioavailability.

[2] = metabolic stability assay in rat liver microsomes; type: in vitro ADME; settings: for microsomal CLint at 1 μM: pH 7.4, male Wistar rat liver microsomes, 0.5 mg protein/mL, 1 μM test compound, NADPH
Description: Hepatic clearance is the most important drug elimination mechanism in the body and many marketed compounds are cleared by hepatic cytochrome P450-mediated metabolism. The excretion or elimination property of the test compounds was determined with a metabolic stability assay according to Obach R S (Drug Metab. Dispos. 1999, 27(11), 1350-1359).
Assays were performed in 96-deepwell-plates using liver microsomes pooled from male Wistar rats (Corning). Rat liver microsomal incubations were conducted in duplicate and incubation mixtures consisted of liver microsomes (0.5 mg microsomal protein/mL), test compound (1 μM), MgCl2 (2 mM), and NADPH (1 mM) in a total volume of 0.7 ml sodium phosphate buffer (100 mM, pH 7.4). Reactions were commenced with the addition of NADPH and shaken on a horizontal shaker with a fitted heating block at 37° C. At t=0 min and the time points: 10 min, 30 min and 60 min; aliquots (70 μL) were removed from the incubations and added to 140 μl termination mixtures. Termination mixtures consisted of acetonitrile supplemented with diazepam, diclofenac and griseofulvin as internal analytical standards. The quenched samples were processed by mixing and centrifugation (2,200×g, 5 minutes). The particle free supernatant was diluted 1+1 with deionised water and subsequently subjected to LC-MS for quantitative bioanalysis in terms of test compound depletion (pump flow rate: 600 μL/min; Kinetex Phenyl-Hexyl analytical column 2.6 μm, 50×2.1 mm (Phenomenex, Germany)). Incubations containing verapamil at a concentration of 1 μM were used as high clearance positive control (PC; n=2), and incubations without NADPH (70 μl phosphate buffer (supplemented with 2 mM MgCl2) instead of 70 μL NADPH solution), in order to verify that any apparent loss of test item in the assay incubation was due to metabolism, were used as negative control (NC; n=2).
Clint data allow to predict the hepatic clearance in vivo, or, in other words, can be used as an indicator for the half life of a compound in vivo and its oral bioavailability. Highly cleared compounds are generally considered to be unfavourable as they are rapidly cleared in vivo resulting in a short duration of action. Said another way, a lower in vitro intrinsic clearance is usually indicative of a longer half life in vivo and of a better oral bioavailability.

[3] = tested on: differentiated Caco-2 cell monolayer; assay: Caco-2 cell permeability assay (efflux ratio); type: in vitro ADME, human; settings: Papp B to A/Papp A to AB
Description: as §1, §2

[4] = molecular target: T1, human bradykinin B2 receptor (hB2R) (Homo sapiens, UniProt P30411); assay: cell-based human bradykinin B2 receptor calcium mobilization (hB2R-CaM) assay; settings: for IC50: HTS041C cells, bradykinin at EC80, calcium mobilization, read-out: IC50-value towards human bradykinin B2 receptor (hB2R)
T1 sequence (P30411 1-391): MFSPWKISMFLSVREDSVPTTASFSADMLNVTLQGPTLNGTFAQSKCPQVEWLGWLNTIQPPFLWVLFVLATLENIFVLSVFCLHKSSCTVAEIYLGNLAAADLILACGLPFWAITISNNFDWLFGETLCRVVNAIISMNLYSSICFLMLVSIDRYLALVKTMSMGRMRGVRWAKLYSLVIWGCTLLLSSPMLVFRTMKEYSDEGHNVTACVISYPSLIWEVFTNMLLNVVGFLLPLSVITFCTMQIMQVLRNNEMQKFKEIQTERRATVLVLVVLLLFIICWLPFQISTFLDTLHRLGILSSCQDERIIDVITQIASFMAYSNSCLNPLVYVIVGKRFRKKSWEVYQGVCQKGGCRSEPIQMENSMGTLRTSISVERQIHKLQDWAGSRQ
How it was run: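 HTS041C cells stably expressing hB2R were serum-reduced, loaded with Calcium 6 dye and pre-incubated with compound (8-point, n=2, 0.1% DMSO) for 25 min at 37° C. Bradykinin was then added at EC80. IC50 came from a 4-parameter logistic fit of the max-min fluorescence signal (485/525 nm).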

Structure (SMILES) | efflux ratio [1] | microsomal CLint at 1 μM [2] [µL/min/mg] | Caco-2 BA/AB (efflux ratio) [3] | IC50 [4] [nM] | fold lower Clint as compared to Comparative Compound No. 171 ([2]; versus Comparative Compound No. 171) [fold] | fold lower Clint as compared to Comparative Compound No. 174 ([2]; versus Comparative Compound No. 174) [fold] | fold improvement of relative IC50 as compared to Comparative Compound No. 169 ([4]; versus Comparative Compound No. 169) [fold] | fold improvement of relative IC50 as compared to Comparative Compound No. 172 ([4]; versus Comparative Compound No. 172) [fold]
Cc1cc(-n2cc(F)cn2)c2cccc(OCc3c(Cl)cccc3C(C)NC(=O)[C@H](C)O)c2n1 (stereo partly shown) [compound 172, reference compound] | 1.6 | 56 | – | – | – | – | – | –
Cc1cc(-c2ncnn2C)c2cccc(OCc3c(Cl)cccc3C(C)NC(=O)COC(F)F)c2n1 (stereo not shown) [compound 174, reference compound] | 1.3 | 135 | – | – | – | – | – | –
Cc1cc(-n2cc(F)cn2)c2cccc(OCc3c(Cl)cncc3C(C)NC(=O)[C@H](C)O)c2n1 (stereo partly shown) [compound 169] | > 2 | 427 | 3.4 | – | – | – | – | –
Cc1cc(-n2cc(F)cn2)c2cccc(OCc3c(Cl)cc(F)cc3[C@H](C)NC(=O)[C@@H](C)O)c2n1 [Compound 1, (R)—N—((S)-1-(3-chloro-5-fluoro-2-((4-(4-fluoro-1H-pyrazol-1-yl)-2-methylquinolin-8-yloxy)methyl)phenyl)ethyl)-2-hydroxypropanamide] | 0.7 | 56 | – | 51 to 250 | – | – | – | –
Cc1cc(-c2ncnn2C)c2cccc(OCc3c(Cl)cc(F)cc3[C@H](C)NC(=O)COC(F)F)c2n1 [Compound 6, (S)—N-(1-(3-chloro-5-fluoro-2-((2-methyl-4-(1-methyl-1H-1,2,4-triazol-5-yl)quinolin-8-yloxy)methyl)phenyl)ethyl)-2-(difluoromethoxy)acetamide] | 1 | – | – | ≤ 50 | 17.8 | 4.8 | – | –
Cc1cc(-n2cc(F)cn2)c2cccc(OCc3c(Cl)cncc3C(C)NC(=O)[C@@H](C)O)c2n1 (stereo partly shown) [compound 170] | > 2 | 329 | 2.9 | – | – | – | – | –
Cc1cc(-c2ncnn2C)c2cccc(OCc3c(Cl)cncc3C(C)NC(=O)COC(F)F)c2n1 (stereo not shown) [compound 171] | – | – | 7.7 | – | – | – | – | –
[2H][C@@](C)(NC(=O)COC(F)F)c1cc(F)cc(Cl)c1COc1cccc2c(-c3ncnn3C)cc(C)nc12 [Compound 11, (S)—N-(1-deutero-1-(3-chloro-5-fluoro-2-((2-methyl-4-(1-methyl-1H-1,2,4-triazol-5-yl)quinolin-8-yloxy)methyl)phenyl)ethyl)-2-(difluoromethoxy)acetamide] | 1.3 | 20 | – | ≤ 50 | – | – | – | –
Cc1cc(-n2cc(F)cn2)c2cccc(OCc3c(Cl)cccc3C(C)NC(=O)[C@@H](C)O)c2n1 (stereo partly shown) [compound 173, reference compound] | 1.1 | 132 | – | – | – | – | – | –
Cc1cc(-n2cc(F)cn2)c2cccc(OCc3c(Cl)cc(F)cc3[C@H](C)NC(=O)[C@H](C)O)c2n1 [Compound 13] | 0.6 | 13 | – | 251 to 1000 | – | – | 7.5 | 3.8
